In BindingDB's records for doi:10.1021/jm970161m (Warner-Lambert, 1997) one finds IC50 data, which are given here for two compounds.

Square brackets hold non-standard residues; d marks the D form. Peptide text beside a SMILES is read from it. NMeDip = CN[C@H](C(=O)O)C(c1ccccc1)c1ccccc1; Dip = N[C@H](C(=O)O)C(c1ccccc1)c1ccccc1; NMeI = CC[C@H](C)[C@H](NC)C(=O)O

In the assay the target is Endothelin-1 receptor (Oryctolagus cuniculus). In words: Inhibition of binding to Endothelin A receptor of rabbit renal vascular smooth muscle cells.

For orientation: IC50 means the point on the concentration scale where inhibition reaches its midpoint. `CC[C@H](C)[C@H](NC(=O)[C@H]([C@@H](C)CC)N(C)C(=O)[C@H](CC(=O)O)NC(=O)[C@H](CC(C)C)NC(=O)[C@@H](NC(C)=O)C(c1ccccc1)c1ccccc1)C(=O)N[C@@H](Cc1c[nH]c2ccccc12)C(=O)O` (Ac-[Dip]LD[NMeI]IW-OH) displayed an IC50 of 700 nM.

Compound `CC[C@H](C)[C@H](NC(=O)[C@H](CC(=O)O)NC(=O)[C@H](CC(C)C)NC(=O)[C@H](C(c1ccccc1)c1ccccc1)N(C)C(C)=O)C(=O)N[C@H](C(=O)N[C@@H](Cc1c[nH]c2ccccc12)C(=O)O)[C@@H](C)CC` (Ac-[NMeDip]LDIIW-OH) gave an IC50 of 4500 nM.
